{
  "source": "patent US20100137345A1",
  "about": "“PROPHYLACTIC AND THERAPEUTIC USE OF SIRTUIN INHIBITORS IN TNF-ALPHA MEDIATED PATHOLOGIES” (Universite Libre de Bruxelles, priority 2007, published 2010)",
  "key": {"[1]": {"system": "murine dendritic cells", "experiment": "TNF-alpha secretion by CpG-stimulated murine dendritic cells (ELISA)", "type": "cell-based", "conditions": "stimulated overnight with graded doses of CpG, FIG. 1A", "method": "(§1) Murine dendritic cells (FIG. 1A) or the murine macrophage-like cell line RAW264.7 cells (FIG. 1B) were cultured in the presence of sirtuin inhibitors as indicated or an equivalent amount of solvent (DMSO) and stimulated overnight with graded doses of CpG (FIG. 1A) or for 2 h with 100 ng/ml of lipopolysaccharide (LPS) from gram-negative bacteria. Cell supernatants were tested for tumor necrosis factor (TNF-alpha) content by ELISA."}, "[2]": {"system": "murine dendritic cells", "experiment": "RANTES secretion by CpG-stimulated murine dendritic cells (ELISA)", "type": "cell-based", "conditions": "inferred from RANTES secretion, FIG. 2", "method": "Murine dendritic cells were cultured in the presence of sirtuin inhibitors as indicated and stimulated overnight with graded doses of CpG. Cell supernatants were tested for RANTES content by ELISA."}, "[3]": {"system": "murine macrophage-like cell line RAW264.7", "experiment": "TNF-alpha secretion by LPS-stimulated RAW264.7 cells (ELISA)", "type": "cell-based", "conditions": "stimulated 2 h with 100 ng/ml LPS, FIG. 1B", "method": "as §1"}, "[4]": {"conditions": "Yang et al. 2007; cited from earlier work"}, "[5]": {"system": "RAW264.7", "experiment": "TNF-alpha mRNA accumulation in LPS-stimulated RAW264.7 (quantitative RT-PCR)", "type": "cell-based, murine", "conditions": "RAW264.7, stimulated 2 h by LPS, FIG. 3", "method": "RAW264.7 were incubated in the presence of sirtuin inhibitors or equivalent doses of solvent (DMSO) as indicated and stimulated for 2 h by LPS. Expression of mRNA encoding for TNF-α was monitored using quantititative RT-PCR using standard procedures and the following forward and reverse primers (fwd: […]; rev: gctacgacgtgggctacag). […] Collectively, these observations indicate that sirtuin inhibitors may affect TNF-alpha secretion by interfering with at a post-transcriptional step."}, "[6]": {"biological_target": "SIRT1 (Homo sapiens, UniProt Q96EB6)", "sequence (Q96EB6 whole entry)": "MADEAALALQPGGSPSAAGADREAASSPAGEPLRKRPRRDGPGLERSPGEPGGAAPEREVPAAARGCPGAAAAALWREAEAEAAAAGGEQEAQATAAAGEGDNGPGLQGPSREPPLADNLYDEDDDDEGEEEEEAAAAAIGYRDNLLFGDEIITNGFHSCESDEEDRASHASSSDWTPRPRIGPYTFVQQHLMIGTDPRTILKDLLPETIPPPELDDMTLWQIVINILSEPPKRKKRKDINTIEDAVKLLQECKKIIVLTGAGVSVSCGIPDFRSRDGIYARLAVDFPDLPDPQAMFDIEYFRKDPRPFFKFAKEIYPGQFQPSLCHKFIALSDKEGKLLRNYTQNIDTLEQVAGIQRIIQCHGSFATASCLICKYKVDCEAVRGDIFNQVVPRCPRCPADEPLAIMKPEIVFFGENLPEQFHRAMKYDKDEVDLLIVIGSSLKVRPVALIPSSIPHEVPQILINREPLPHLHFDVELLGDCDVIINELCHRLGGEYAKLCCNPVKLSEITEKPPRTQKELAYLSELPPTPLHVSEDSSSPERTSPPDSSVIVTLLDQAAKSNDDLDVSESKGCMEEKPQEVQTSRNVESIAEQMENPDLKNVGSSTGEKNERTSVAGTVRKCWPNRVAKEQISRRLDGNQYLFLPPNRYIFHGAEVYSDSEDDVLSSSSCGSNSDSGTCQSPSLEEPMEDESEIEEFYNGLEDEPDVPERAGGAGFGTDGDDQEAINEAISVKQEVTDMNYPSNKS", "conditions": "Howitz et al. 2003; cited from earlier work"}},
  "note": "Entries after “also recorded” stand apart in the source; their conditions may differ.",
  "data": [
    {"smiles": "CC(NC(=O)c1ccccc1/N=C/c1c(O)ccc2ccccc12)c1ccccc1", "note": "(stereo not shown) [sirtinol, 2-[(2-Hydroxynaphthalen-1-ylmethylene)amino]-N-(1-phenethyl)benzamide]", "values": [
      {"measurement": "TNF-alpha secretion (supernatant TNF-alpha content by ELISA)", "setting": "[1]", "result": "downregulation of TNF-alpha secretion"},
      {"measurement": "general inhibition of protein synthesis or induction of cell death", "setting": "[2]", "result": "do not generally inhibit protein synthesis nor induce cell death"},
      {"measurement": "TNF-alpha secretion / cytokine production (supernatant TNF-alpha content by ELISA)", "setting": "[3]", "result": "inhibit TNF-α protein synthesis; also recorded: downregulation of TNF-alpha secretion; also recorded: may downregulate TNF-alpha cytokine production"},
      {"measurement": "release of inflammatory cytokines induced by cigarette smoke extracts", "setting": "[4]", "result": "could increase the release of inflammatory cytokines"},
      {"measurement": "intracellular accumulation of TNF-alpha mRNA", "setting": "[5]", "result": "do not significantly affect TNF-alpha mRNA accumulation; also recorded: without significantly affecting the intracellular accumulation of TNF-alpha mRNA"}
    ]},
    {"smiles": "Cc1ccc(C(=O)Nc2ccc(S(=O)(=O)O)c3cc(S(=O)(=O)O)cc(S(=O)(=O)O)c23)cc1NC(=O)c1cccc(NC(=O)Nc2cccc(C(=O)Nc3cc(C(=O)Nc4ccc(S(=O)(=O)O)c5cc(S(=O)(=O)O)cc(S(=O)(=O)O)c45)ccc3C)c2)c1", "note": "[suramin]", "values": [
      {"measurement": "inhibition of SIRT1 enzymatic activity", "setting": "[6]", "result": "found to inhibit SIRT1 enzymatic activity"}
    ]},
    {"smiles": "Oc1ccc2ccccc2c1Cc1c(O)nc(S)nc1-c1ccccc1", "note": "[cambinol, 5-((2-hydroxy-1-naphthyl)methyl)-2-mercapto-6-phenyl-4-pyrimidinol]", "values": [
      {"measurement": "TNF-alpha secretion (supernatant TNF-alpha content by ELISA)", "setting": "[1]", "result": "downregulation of TNF-alpha secretion"},
      {"measurement": "general inhibition of protein synthesis or induction of cell death", "setting": "[2]", "result": "do not generally inhibit protein synthesis nor induce cell death"},
      {"measurement": "TNF-alpha secretion / cytokine production (supernatant TNF-alpha content by ELISA)", "setting": "[3]", "result": "inhibit TNF-α protein synthesis; also recorded: downregulation of TNF-alpha secretion; also recorded: may downregulate TNF-alpha cytokine production"},
      {"measurement": "intracellular accumulation of TNF-alpha mRNA", "setting": "[5]", "result": "do not significantly affect TNF-alpha mRNA accumulation; also recorded: without significantly affecting the intracellular accumulation of TNF-alpha mRNA"}
    ]}
  ]
}
